Where two headings read alike, the source gives them in different places.
Tests used:
BRD2 = BRD2 (Homo sapiens, UniProt P25440); test: Western blot of BRD2 levels after cellular dosing
BRD3 = BRD3 (Homo sapiens, UniProt Q15059); test: Western blot of BRD3 levels after cellular dosing
[1] = U2OS, read-out: BRD2 level, Western blot quantification (DMSO = 100), Fig S6d, U2OS KO/rescue Dose Response
[2] = read-out: BRD2 level, Western blot quantification (DMSO = 100), Fig S6e, PC3 KO/rescue Dose Response

Sequence of BRD2 (P25440 whole entry): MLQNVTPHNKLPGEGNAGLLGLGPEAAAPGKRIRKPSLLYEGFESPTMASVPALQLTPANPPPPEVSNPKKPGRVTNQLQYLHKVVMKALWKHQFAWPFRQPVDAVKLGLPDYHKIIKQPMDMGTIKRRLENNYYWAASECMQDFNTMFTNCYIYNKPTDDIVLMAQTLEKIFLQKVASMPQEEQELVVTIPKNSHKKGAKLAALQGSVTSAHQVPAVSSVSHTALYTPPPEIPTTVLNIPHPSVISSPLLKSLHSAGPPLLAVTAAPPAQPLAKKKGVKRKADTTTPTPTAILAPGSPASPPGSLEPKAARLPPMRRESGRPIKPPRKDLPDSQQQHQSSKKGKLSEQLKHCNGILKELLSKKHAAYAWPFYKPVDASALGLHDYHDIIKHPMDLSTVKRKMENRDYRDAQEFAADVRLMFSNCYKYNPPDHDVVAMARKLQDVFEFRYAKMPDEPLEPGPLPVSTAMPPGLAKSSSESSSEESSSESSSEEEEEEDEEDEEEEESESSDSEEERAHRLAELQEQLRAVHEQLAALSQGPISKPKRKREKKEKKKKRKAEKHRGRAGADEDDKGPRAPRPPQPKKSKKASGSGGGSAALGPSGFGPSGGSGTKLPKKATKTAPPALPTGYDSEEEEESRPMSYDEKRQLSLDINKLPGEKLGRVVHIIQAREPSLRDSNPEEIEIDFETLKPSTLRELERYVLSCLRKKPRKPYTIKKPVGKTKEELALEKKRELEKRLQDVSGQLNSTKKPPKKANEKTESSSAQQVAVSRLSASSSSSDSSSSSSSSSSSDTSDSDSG
Sequence of BRD3 (Q15059 whole entry): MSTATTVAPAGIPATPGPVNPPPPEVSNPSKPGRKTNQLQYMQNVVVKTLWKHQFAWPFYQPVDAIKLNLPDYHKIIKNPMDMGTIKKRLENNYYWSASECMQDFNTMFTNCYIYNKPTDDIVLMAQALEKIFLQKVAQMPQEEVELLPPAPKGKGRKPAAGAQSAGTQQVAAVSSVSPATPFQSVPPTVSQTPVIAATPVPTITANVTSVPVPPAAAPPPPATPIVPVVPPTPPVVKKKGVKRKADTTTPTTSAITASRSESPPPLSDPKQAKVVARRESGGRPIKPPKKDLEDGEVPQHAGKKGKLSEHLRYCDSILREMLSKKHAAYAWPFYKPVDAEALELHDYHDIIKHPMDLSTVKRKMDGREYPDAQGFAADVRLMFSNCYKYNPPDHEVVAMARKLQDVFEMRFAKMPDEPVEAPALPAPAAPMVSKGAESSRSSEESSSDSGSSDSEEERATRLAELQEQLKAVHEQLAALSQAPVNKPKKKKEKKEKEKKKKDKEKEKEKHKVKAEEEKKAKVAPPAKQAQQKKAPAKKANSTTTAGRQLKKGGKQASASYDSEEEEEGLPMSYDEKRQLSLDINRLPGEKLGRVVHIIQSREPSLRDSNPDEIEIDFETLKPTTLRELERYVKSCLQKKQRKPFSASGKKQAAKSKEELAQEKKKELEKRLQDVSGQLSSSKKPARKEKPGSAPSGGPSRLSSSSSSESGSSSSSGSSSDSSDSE

In the case of `COC(=O)CNC(=O)Cc1csc(-c2ccc3cccc(OCCN4CCN(C(=O)C[C@@H]5N=C(c6ccc(Cl)cc6)c6c(sc(C)c6C)-n6c(C)nnc65)CC4)c3c2)n1` [SJ46420], the remaining activity at 5 µM (BRD2; SK-BR-3, 4 h, read-out: BRD2 level relative to DMSO (100%), SKBR3, 5µM, 4hr, Fig S6j) is reported as 85 ± 7.3%, the remaining activity at 1 µM (BRD2; SK-BR-3, 4 h, read-out: BRD2 level, Western blot quantification (DMSO = 100), Fig S6g, SKBR3 Time course, 1 uM, 4hr) is reported as 79.4% and the remaining activity at 5 µM (BRD2; SK-BR-3, 4 h, read-out: BRD2 level, Western blot quantification (DMSO = 100), Fig S6g, SKBR3 Time course, 5 uM, 4hr) is reported as 79.5%. The remaining activity at 1 µM (BRD2; SK-BR-3, 8 h, read-out: BRD2 level relative to DMSO (100%), SKBR3, 1µM, 8hr, Fig S6g) was 81 ± 7.6%, the remaining activity at 5 µM (BRD2; SK-BR-3, 8 h, read-out: BRD2 level relative to DMSO (100%), SKBR3, 5µM, 8hr, Fig S6g) was 90 ± 9.8% and the remaining activity at 1 µM (BRD2; SK-BR-3, 8 h, read-out: BRD2 level, Western blot quantification (DMSO = 100), Fig S6g, SKBR3 Time course, 1 uM, 8hr) was 76.3%. The remaining activity at 5 µM (BRD2; SK-BR-3, 8 h, read-out: BRD2 level, Western blot quantification (DMSO = 100), Fig S6g, SKBR3 Time course, 5 uM, 8hr) was 97.9%, the remaining activity at 5 µM (BRD2; SK-BR-3, read-out: BRD2 level, Western blot quantification (DMSO = 100), Fig S6i, SKBR3, 5uM) was 90.6% and the “BRD2 Dmax” value (BRD2; U2OS KO/Rescue, 24 h dose) was ~ 100%. The remaining activity at 5 µM (BRD2; U2OS, 2 h, read-out: BRD2 level relative to DMSO (100%), U2OS, 5µM, 2hr, Fig S6h) was 102 ± 6.9%, the remaining activity at 5 µM (BRD2; U2OS, 2 h, read-out: BRD2 level, Western blot quantification (DMSO = 100), Fig S6h, U2OS Time course, 5uM, 2hr) was 108% and the remaining activity at 5 µM (BRD2; U2OS, 4 h, read-out: BRD2 level relative to DMSO (100%), U2OS, 5µM, 4hr, Fig S6h) was 104 ± 6.4%. The remaining activity at 5 µM (BRD2; U2OS, 4 h, read-out: BRD2 level, Western blot quantification (DMSO = 100), Fig S6h, U2OS Time course, 5uM, 4hr) was 109%, the remaining activity at 5 µM (BRD2; U2OS, 8 h, read-out: BRD2 level relative to DMSO (100%), U2OS, 5µM, 8hr, Fig S6i) was 120 ± 3.4% and the remaining activity at 5 µM (BRD2; U2OS, 8 h, read-out: BRD2 level relative to DMSO (100%), U2OS, 5µM, 8hr, Fig S6h) was 106 ± 8.4%. The remaining activity at 5 µM (BRD2; U2OS, 8 h, read-out: BRD2 level, Western blot quantification (DMSO = 100), Fig S6h, U2OS Time course, 5uM, 8hr) was 112%, the remaining activity at 5 µM (BRD2; U2OS, 24 h, read-out: BRD2 level relative to DMSO (100%), U2OS DC2KO (KLHDC2 knockout), 5µM, 24 h, Fig 6b) was 77 ± 2% and the remaining activity at 0.16 µM (BRD2; U2OS, 24 h, read-out: BRD2 level relative to DMSO (100%), U2OS KO/Rescue, 0.16µM, 24 h, Fig S6d) was 94 ± 6.9%. The remaining activity at 0.31 µM (BRD2; U2OS, 24 h, read-out: BRD2 level relative to DMSO (100%), U2OS KO/Rescue, 0.31µM, 24 h, Fig S6d) was 77 ± 6.6%, the remaining activity at 0.63 µM (BRD2; U2OS, 24 h, read-out: BRD2 level relative to DMSO (100%), U2OS KO/Rescue, 0.63µM, 24 h, Fig S6d) was 63 ± 3.8% and the remaining activity at 1 µM (BRD2; U2OS, 24 h, read-out: BRD2 level relative to DMSO (100%), U2OS KO/Rescue, 1µM + co-dosing 1µM MLN4924, 24 h, Fig 6d) was 350 ± 120%. It also gave a remaining activity at 1 µM (BRD2; U2OS, 24 h, read-out: BRD2 level relative to DMSO (100%), U2OS KO/Rescue, 1µM, 24 h, Fig 6c) of 88 ± 8.4%, a remaining activity at 1 µM (BRD2; U2OS, 24 h, read-out: BRD2 level relative to DMSO (100%), U2OS KO/Rescue, 1µM, 24 h, Fig 6d) of 68 ± 17% and a remaining activity at 1.3 µM (BRD2; U2OS, 24 h, read-out: BRD2 level relative to DMSO (100%), U2OS KO/Rescue, 1.3µM, 24 h, Fig S6d) of 54 ± 6.7%. It also gave a remaining activity at 2.5 µM (BRD2; U2OS, 24 h, read-out: BRD2 level relative to DMSO (100%), U2OS KO/Rescue, 2.5µM, 24 h, Fig S6d) of 37 ± 9.7%, a remaining activity at 5 µM (BRD2; U2OS, 24 h, read-out: BRD2 level relative to DMSO (100%), U2OS KO/Rescue, 5µM, 24 h, Fig S6d) of 12 ± 2.2% and a remaining activity at 5 µM (BRD2; U2OS, 24 h, read-out: BRD2 level relative to DMSO (100%), U2OS, 5µM, 24 h, Fig 6b) of 87 ± 5%. It also gave a remaining activity at 5 µM (BRD2; U2OS, 24 h, read-out: BRD2 level relative to DMSO (100%), U2OS, 5µM, 24hr, Fig S6h) of 77 ± 4.3%, a remaining activity at 5 µM (BRD2; U2OS, 24 h, read-out: BRD2 level, Western blot quantification (DMSO = 100), Fig S6h, U2OS Time course, 5uM, 24hr) of 79.8% and a remaining activity at 1.59176 µM (BRD2; U2OS, read-out: BRD2 (DMSO = 100), U2OS KO/Rescue cells, Log SJ46420 (uM) 1.59176, Rep1, Rep2) of 102%. The remaining activity at 1.89279 µM (BRD2; U2OS, read-out: BRD2 (DMSO = 100), U2OS KO/Rescue cells, Log SJ46420 (uM) 1.89279, Rep1, Rep2) was 99%, the remaining activity at 2.19382 µM (BRD2; U2OS, read-out: BRD2 (DMSO = 100), U2OS KO/Rescue cells, Log SJ46420 (uM) 2.19382, Rep1, Rep2) was 82.2% and the remaining activity at 2.49485 µM (BRD2; U2OS, read-out: BRD2 (DMSO = 100), U2OS KO/Rescue cells, Log SJ46420 (uM) 2.49485, Rep1, Rep2) was 66.6%. For the same compound, the remaining activity at 2.79588 µM (BRD2; U2OS, read-out: BRD2 (DMSO = 100), U2OS KO/Rescue cells, Log SJ46420 (uM) 2.79588, Rep1, Rep2) was 49.5%, the remaining activity at 3.09691 µM (BRD2; U2OS, read-out: BRD2 (DMSO = 100), U2OS KO/Rescue cells, Log SJ46420 (uM) 3.09691, Rep1, Rep2) was 30.5% and the remaining activity at 3.39794 µM (BRD2; U2OS, read-out: BRD2 (DMSO = 100), U2OS KO/Rescue cells, Log SJ46420 (uM) 3.39794, Rep1, Rep2) was 13.8%. For the same compound, the remaining activity at 3.69897 µM (BRD2; U2OS, read-out: BRD2 (DMSO = 100), U2OS KO/Rescue cells, Log SJ46420 (uM) 3.69897, Rep1, Rep2) was 1.16%, the Dmax (BRD2; U2OS, read-out: BRD2 Dmax, U2OS KO/Rescue, 24 h dose) was 99.3% and the remaining activity at 5 µM (BRD2; U2OS, read-out: BRD2 level, Western blot quantification (DMSO = 100), Fig 6b, U2OS, 5 uM) was 90.7%. For the same compound, the remaining activity at 5 µM (BRD2; U2OS, read-out: BRD2 level, Western blot quantification (DMSO = 100), Fig S6i, U2OS, 5uM) was 118%, the remaining activity at 0.156 µM (BRD2; [1]) was 83.3% and the remaining activity at 0.313 µM (BRD2; [1]) was 100%. The remaining activity at 0.625 µM (BRD2; [1]) was 81.2%, the remaining activity at 1.25 µM (BRD2; [1]) was 85.7% and the remaining activity at 2.5 µM (BRD2; U2OS, read-out: BRD2 level, Western blot quantification (DMSO = 100), Fig S6d, U2OS KO/rescue Dose Response, 2.5 uM) was 86.6%. For the same compound, the remaining activity at 5 µM (BRD2; U2OS, read-out: BRD2 level, Western blot quantification (DMSO = 100), Fig S6d, U2OS KO/rescue Dose Response, 5 uM) was 86.5%, the Dmax (BRD2; read-out: BRD2 Dmax, PC3, 24 h dose) was 19.5% and the remaining activity at 5 µM (BRD2; read-out: BRD2 level, Western blot quantification (DMSO = 100), Fig 6b, KO/Rescue, 5 uM) was 78.2%. The remaining activity at 0.156 µM (BRD2; [2]) was 99%, the remaining activity at 0.313 µM (BRD2; [2]) was 82.2% and the remaining activity at 0.625 µM (BRD2; [2]) was 66.6%. It also gave a remaining activity at 1.25 µM (BRD2; [2]) of 49.5%, a remaining activity at 2.5 µM (BRD2; read-out: BRD2 level, Western blot quantification (DMSO = 100), Fig S6e, PC3 KO/rescue Dose Response, 2.5 uM) of 30.5% and a remaining activity at 5 µM (BRD2; read-out: BRD2 level, Western blot quantification (DMSO = 100), Fig S6e, PC3 KO/rescue Dose Response, 5 uM) of 13.8%. The remaining activity at 10 µM (BRD2; read-out: BRD2 level, Western blot quantification (DMSO = 100), Fig S6e, PC3 KO/rescue Dose Response, 10uM) was 1.16%, the “selectivity for BRD3 over BRD4 (DC50)” value (BRD3; 22Rv1) was ~ 44 fold and the remaining activity at 0.16 µM (BRD3; 22Rv1, 24 h, read-out: BRD3 level relative to DMSO (100%), 22Rv1, 0.16µM, 24 h, Fig S6f) was 74 ± 4.4%. It also gave a remaining activity at 0.31 µM (BRD3; 22Rv1, 24 h, read-out: BRD3 level relative to DMSO (100%), 22Rv1, 0.31µM, 24 h, Fig S6f) of 54 ± 11%.

Source: paper PMC11470957, “Principles of paralog-specific targeted protein degradation engaging the C-degron E3 KLHDC2” (Nature Communications, 2024)
